According to patent US9586968B2, “Bicycloamine-substituted-N-benzenesulfonamide compounds with selective activity in voltage-gated sodium channels” (Merck Sharp & Dohme Corp., priority 2013, dated 2017):

Legend:
human Nav1.5 = target: T1, human Nav1.5 (Homo sapiens, UniProt Q14524); assay: PatchXpress automated patch-clamp, inactivated state block of Nav1.5 (selectivity); assay type: cell-based; settings: determined by PatchXpress measurement, HEK 293 cells
T1 construct: expressed in transfected cells
T1 sequence (Q14524 whole entry): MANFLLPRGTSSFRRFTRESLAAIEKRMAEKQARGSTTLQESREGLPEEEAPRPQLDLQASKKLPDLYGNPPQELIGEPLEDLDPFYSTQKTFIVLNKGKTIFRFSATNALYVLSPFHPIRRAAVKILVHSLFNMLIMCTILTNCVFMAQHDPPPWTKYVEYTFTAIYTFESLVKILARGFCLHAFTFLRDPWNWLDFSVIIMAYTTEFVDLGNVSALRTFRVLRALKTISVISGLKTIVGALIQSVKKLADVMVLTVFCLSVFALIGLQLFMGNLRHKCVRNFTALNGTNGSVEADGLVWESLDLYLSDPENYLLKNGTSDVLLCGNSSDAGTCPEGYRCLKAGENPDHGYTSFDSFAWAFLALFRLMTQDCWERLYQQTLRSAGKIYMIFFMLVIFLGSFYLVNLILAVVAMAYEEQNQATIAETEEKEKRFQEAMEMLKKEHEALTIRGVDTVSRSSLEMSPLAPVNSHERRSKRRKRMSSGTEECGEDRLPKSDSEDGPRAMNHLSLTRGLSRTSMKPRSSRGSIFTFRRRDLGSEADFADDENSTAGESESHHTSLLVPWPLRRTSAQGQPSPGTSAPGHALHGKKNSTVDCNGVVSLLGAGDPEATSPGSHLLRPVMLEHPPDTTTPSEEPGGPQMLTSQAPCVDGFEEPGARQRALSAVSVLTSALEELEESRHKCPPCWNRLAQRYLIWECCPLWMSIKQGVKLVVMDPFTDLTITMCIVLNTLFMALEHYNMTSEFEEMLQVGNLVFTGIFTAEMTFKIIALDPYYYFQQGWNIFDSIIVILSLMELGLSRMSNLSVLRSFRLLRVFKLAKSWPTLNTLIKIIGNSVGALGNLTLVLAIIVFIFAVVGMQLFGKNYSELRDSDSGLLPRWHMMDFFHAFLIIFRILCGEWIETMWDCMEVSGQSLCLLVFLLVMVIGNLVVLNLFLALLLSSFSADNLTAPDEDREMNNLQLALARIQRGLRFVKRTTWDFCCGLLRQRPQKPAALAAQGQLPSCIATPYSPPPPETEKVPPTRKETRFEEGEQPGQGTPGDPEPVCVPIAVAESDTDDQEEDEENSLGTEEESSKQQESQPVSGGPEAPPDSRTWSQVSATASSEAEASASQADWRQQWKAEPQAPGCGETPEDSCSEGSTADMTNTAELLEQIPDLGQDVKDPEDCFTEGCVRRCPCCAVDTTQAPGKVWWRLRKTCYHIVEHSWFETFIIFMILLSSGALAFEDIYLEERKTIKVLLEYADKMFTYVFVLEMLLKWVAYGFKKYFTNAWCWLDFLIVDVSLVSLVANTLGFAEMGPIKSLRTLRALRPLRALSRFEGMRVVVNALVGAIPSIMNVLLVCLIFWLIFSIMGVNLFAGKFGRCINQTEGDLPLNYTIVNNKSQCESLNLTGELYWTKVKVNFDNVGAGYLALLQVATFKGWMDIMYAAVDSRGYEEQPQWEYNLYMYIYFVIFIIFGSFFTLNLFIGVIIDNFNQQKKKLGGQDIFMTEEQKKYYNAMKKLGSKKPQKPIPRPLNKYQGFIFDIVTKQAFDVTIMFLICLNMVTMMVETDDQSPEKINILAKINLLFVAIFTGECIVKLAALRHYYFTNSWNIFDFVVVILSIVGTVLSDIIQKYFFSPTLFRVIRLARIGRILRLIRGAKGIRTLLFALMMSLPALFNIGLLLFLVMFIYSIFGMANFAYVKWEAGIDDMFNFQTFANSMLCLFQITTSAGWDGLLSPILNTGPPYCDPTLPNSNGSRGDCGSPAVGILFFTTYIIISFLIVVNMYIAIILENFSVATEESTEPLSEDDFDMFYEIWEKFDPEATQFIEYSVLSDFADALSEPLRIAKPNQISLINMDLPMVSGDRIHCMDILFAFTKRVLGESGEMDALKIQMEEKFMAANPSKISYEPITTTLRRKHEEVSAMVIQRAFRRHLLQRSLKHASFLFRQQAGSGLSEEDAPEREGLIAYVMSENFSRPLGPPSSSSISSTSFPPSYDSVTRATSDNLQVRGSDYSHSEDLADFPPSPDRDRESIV
Protocol: (§1) Compounds were tested on human Nav1.7 and Nav1.5 channels stably expressed in HEK 293 cells. Activity toward Nav 1.7 and Nav 1.5 channels was assessed using the following assay methodology.
(§2) Sodium Current Measurements on the PatchXpress 7000®:
(§3) To measure inactivated state block of sodium channels, test compounds were characterized in an automated PatchXpress® assay (Molecular Devices) using a double-pulse protocol on human Nav1.7 and Nav1.5 channels stably expressed in HEK 293 cells. Cells were held at a potential 20 mV negative to V0.5 inact. An 8000 ms pre-pulse 7 mV positive to V0.5 inact was given followed by a hyperpolarizing 2 ms pulse to −120 mV and a 20 ms test pulse to −20 mV. Protocol was applied to cells in the absence, presence of compound and after washout. The temperature of PatchXpress instruments was maintained at 22° C. The following recording solutions were used. Internal solution (mM): 30 CsCl, 5 HEPES, 10 EGTA, 120 CsF, 5 NaF, 2 MgCl2. External solution (mM): 120 NMDG, 40 NaCl, 1 KCl, 0.5 MgCl2, 5 HEPES, 2.7 CaCl2.
(§4) For all electrophysiology experiments, offline analysis was used to correct for current rundown and to determine percent inhibition as a function of drug concentration. IC50 values were determined by fitting to the Hill equation.

human Nav1.7 = target: T2, human Nav1.7 (Homo sapiens, UniProt Q15858); assay: PatchXpress automated patch-clamp, inactivated state block of Nav1.7; assay type: cell-based; settings: channels stably expressed in HEK 293 cells, 22° C., read-out: potency for the Nav 1.7 sodium ion channel (as measured by PatchXpress)
T2 construct: expressed in transfected cells
T2 sequence (Q15858 whole entry): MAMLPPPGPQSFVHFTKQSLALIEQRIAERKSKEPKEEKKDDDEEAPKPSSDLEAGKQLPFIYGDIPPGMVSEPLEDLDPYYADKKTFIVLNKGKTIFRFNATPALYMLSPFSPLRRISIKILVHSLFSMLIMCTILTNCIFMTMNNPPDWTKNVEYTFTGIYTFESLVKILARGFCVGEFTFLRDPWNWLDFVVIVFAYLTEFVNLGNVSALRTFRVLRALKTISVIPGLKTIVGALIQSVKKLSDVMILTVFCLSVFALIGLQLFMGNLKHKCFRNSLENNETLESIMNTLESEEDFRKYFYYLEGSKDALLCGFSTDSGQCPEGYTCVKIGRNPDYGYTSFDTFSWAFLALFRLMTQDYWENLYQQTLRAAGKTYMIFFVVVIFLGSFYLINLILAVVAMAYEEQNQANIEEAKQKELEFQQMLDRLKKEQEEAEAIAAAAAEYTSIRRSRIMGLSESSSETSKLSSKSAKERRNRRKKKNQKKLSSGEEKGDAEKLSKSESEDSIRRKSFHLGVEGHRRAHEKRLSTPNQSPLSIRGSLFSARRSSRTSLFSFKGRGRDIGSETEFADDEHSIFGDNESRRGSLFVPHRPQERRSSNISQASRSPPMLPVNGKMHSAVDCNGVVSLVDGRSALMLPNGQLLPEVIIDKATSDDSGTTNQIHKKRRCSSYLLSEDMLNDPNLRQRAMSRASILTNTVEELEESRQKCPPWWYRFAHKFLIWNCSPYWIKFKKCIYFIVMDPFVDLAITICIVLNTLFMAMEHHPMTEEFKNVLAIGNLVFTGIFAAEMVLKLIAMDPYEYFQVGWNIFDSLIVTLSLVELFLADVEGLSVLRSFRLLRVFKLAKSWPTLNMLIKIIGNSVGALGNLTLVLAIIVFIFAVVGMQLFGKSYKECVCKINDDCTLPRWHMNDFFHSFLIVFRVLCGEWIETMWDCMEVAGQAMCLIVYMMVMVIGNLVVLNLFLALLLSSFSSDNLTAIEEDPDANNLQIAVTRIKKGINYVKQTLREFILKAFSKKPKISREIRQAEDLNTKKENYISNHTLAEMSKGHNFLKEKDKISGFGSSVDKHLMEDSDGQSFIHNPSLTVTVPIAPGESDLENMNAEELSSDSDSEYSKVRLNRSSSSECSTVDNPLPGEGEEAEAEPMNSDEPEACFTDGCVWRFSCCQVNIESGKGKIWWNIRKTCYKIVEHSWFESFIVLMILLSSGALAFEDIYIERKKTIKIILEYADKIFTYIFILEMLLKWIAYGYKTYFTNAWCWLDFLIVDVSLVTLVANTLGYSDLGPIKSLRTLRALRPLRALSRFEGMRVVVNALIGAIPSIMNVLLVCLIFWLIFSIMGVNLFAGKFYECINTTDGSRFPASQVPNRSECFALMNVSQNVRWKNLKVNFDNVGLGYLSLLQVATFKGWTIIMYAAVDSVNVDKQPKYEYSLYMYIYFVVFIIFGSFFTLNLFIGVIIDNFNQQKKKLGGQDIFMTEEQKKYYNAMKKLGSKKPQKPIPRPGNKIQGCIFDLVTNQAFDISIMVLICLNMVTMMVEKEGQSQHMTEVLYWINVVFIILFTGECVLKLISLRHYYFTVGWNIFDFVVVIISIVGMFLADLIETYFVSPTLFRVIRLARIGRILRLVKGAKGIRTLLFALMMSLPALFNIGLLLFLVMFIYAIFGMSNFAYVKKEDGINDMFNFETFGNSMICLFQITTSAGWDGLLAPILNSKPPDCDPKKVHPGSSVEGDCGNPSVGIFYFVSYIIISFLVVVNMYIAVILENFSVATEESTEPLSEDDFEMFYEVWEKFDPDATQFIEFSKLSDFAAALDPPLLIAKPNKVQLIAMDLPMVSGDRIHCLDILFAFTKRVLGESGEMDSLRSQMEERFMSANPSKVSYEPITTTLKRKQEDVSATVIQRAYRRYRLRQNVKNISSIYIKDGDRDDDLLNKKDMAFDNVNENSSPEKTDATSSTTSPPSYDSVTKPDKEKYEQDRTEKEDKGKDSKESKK
Protocol: as §1, §2, §3, §4

Row | IC50 (human Nav1.7) [nM] | Compound | ratio of Nav1.7 potency:Nav 1.5 potency (human Nav1.5)
1 | 35 | CC1(C)CN2CCCC2(CNc2cc(F)c(S(=O)(=O)Nc3ncc(F)s3)cc2Cl)C1 (single isomer, unassigned) [Ex8-21-A, (R or S) 5-chloro-4-(((2,2-dimethylhexahydro-1H-pyrrolizin-7a-yl)methyl)amino)-2-fluoro-N-(5-fluorothiazol-2-yl)benzenesulfonamide] | 851
2 | 23 | CC1(C)CN2CCCC2(CNc2cc(F)c(S(=O)(=O)Nc3ncc(F)s3)cc2Cl)C1 (single isomer, unassigned) [Ex8-21-B, (S or R) 5-chloro-4-(((2,2-dimethylhexahydro-1H-pyrrolizin-7a-yl)methyl)-amino)-2-fluoro-N-(5-fluorothiazol-2-yl)-benzenesulfonamide] | 1290
3 | 172 | CC1(C)CN2CCCC2(CNc2ccc(S(=O)(=O)Nc3nccs3)cc2C(F)(F)F)C1 (single isomer, unassigned) [Ex8-23-A, (R or S) 4-(((2,2-dimethylhexahydro-1H-pyrrolizin-7a-yl)methyl)-amino)-N-(thiazol-2-yl)-3-(trifluoromethyl)benzene-sulfonamide] | 175
4 | 31 | CC1(C)CN2CCCC2(CNc2ccc(S(=O)(=O)Nc3nccs3)cc2C(F)(F)F)C1 (single isomer, unassigned) [Ex8-23-B, (S or R) 4-(((2,2-dimethylhexahydro-1H-pyrrolizin-7a-yl)methyl)amino)-N-(thiazol-2-yl)-3-(trifluoromethyl)-benzenesulfonamide] | 981
5 | 148 | O=S(=O)(Nc1ncc(F)s1)c1cc(Cl)c(NCC23CCCN2CC(F)C3)cc1F (single isomer, unassigned) [Ex9-10-A, 5-chloro-2-fluoro-4-((((2R,7aS or 2S,7aR)-2-fluoro-hexahydro-1H-pyrrolizin-7a-yl)-methyl)amino)-N-(5-fluorothiazol-2-yl)-benzenesulfonamide] | 137
6 | 58 | O=S(=O)(Nc1ncc(F)s1)c1cc(Cl)c(NCC23CCCN2CC(F)C3)cc1F (single isomer, unassigned) [Ex9-10-B, 5-chloro-2-fluoro-4-((((2S,7aR or 2R,7aS)-2-fluoro-hexahydro-1H-pyrrolizin-7a-yl)-methyl)amino)-N-(5-fluorothiazol-2-yl)-benzenesulfonamide] | 122
7 | 89 | O=S(=O)(Nc1ncc(F)s1)c1ccc(NCC23CCCN2CC(F)C3)c(C(F)(F)F)c1 (single isomer, unassigned) [Ex9-12-A, 4-((((2R,7aS or 2S,7aR)-2-fluoro-hexahydro-1H-pyrrolizin-7a-yl)-methyl)amino)-N-(5-fluorothiazol-2-yl)-3-(trifluoromethyl)-benzenesulfonamide] | 338
8 | 80 | O=S(=O)(Nc1ncc(F)s1)c1ccc(NCC23CCCN2CC(F)C3)c(C(F)(F)F)c1 (single isomer, unassigned) [Ex9-12-B, 4-((((2S,7aR or 2R,7aS)-2-fluoro-hexahydro-1H-pyrrolizin-7a-yl)methyl)amino)-N-(5-fluorothiazol-2-yl)-3-(trifluoromethyl)-benzenesulfonamide] | 300
9 | 144 | O=S(=O)(Nc1ncc(F)s1)c1ccc(NCC23CCCN2CC(F)C3)c(Cl)c1 (single isomer, unassigned) [Ex9-14-A, 3-chloro-4-((((2R,7aS or 2S,7aR)-2-fluoro-hexahydro-1H-pyrrolizin-7a-yl)-methyl)amino)-N-(5-fluorothiazol-2-yl)-benzenesulfonamide] | 208
10 | 176 | O=S(=O)(Nc1ncc(F)s1)c1ccc(NCC23CCCN2CC(F)C3)c(Cl)c1 (single isomer, unassigned) [Ex9-14-B, 3-chloro-4-((((2S,7aR or 2R,7aS)-2-fluoro-hexahydro-1H-pyrrolizin-7a-yl)methyl)amino)-N-(5-fluorothiazol-2-yl)-benzenesulfonamide] | 171
11 | 10 | O=S(=O)(Nc1nccs1)c1cc(Cl)c(NC[C@]23CCCN2CC2(C3)OCCO2)cc1F (single isomer, unassigned) [Ex10-7-A] | 3074
12 | 32 | O=S(=O)(Nc1nccs1)c1cc(Cl)c(NC[C@@]23CCCN2CC2(C3)OCCO2)cc1F (single isomer, unassigned) [Ex10-7-B] | 935
13 | 25 | O=S(=O)(Nc1ncc(Cl)s1)c1cc(Cl)c(NCC23CCCN2CC2(C3)OCCO2)cc1F (single isomer, unassigned) [Ex10-9-A, (S or R)-5-chloro-N-(5-chlorothiazol-2-yl)-2-fluoro-4-(((hexahydro-spiro[[1,3]dioxolane-2,2′-pyrrolizin]-7a′-yl)-methyl)amino)-benzenesulfonamide] | 1210
14 | 108 | O=S(=O)(Nc1ncc(Cl)s1)c1cc(Cl)c(NCC23CCCN2CC2(C3)OCCO2)cc1F (single isomer, unassigned) [Ex10-9-B, (R or S)-5-chloro-N-(5-chloro-thiazol-2-yl)-2-fluoro-4-(((hexahydrospiro[[1,3]-dioxolane-2,2′-pyrrolizin]-7a′-yl)-methyl)amino)-benzenesulfonamide] | 277
15 | 35 | C[C@H]1CC[C@]2(CNc3cc(F)c(S(=O)(=O)Nc4nccs4)cc3Cl)CCCN12 (single isomer, unassigned) [Ex11-8-A] | 305
16 | 6 | C[C@@H]1CC[C@@]2(CNc3cc(F)c(S(=O)(=O)Nc4nccs4)cc3Cl)CCCN12 (single isomer, unassigned) [Ex11-8-B] | 2533
17 | 22 | CC1CCC2(CNc3ccc(S(=O)(=O)Nc4nccs4)cc3C(F)(F)F)CCCN12 (single isomer, unassigned) [Ex11-10-A, 4-((((3S,7aS or 3R,7aR)-3-methyl-hexahydro-1H-pyrrolizin-7a-yl)methyl)-amino)-N-(thiazol-2-yl)-3-(trifluoromethyl)-benzenesulfonamide] | 1376
18 | 40 | CC1CCC2(CNc3ccc(S(=O)(=O)Nc4nccs4)cc3C(F)(F)F)CCCN12 (single isomer, unassigned) [Ex11-10-B, 4-((((3R,7aR or 3S,7aS)-3-methylhexahydro-1H-pyrrolizin-7a-yl)methyl)-amino)-N-(thiazol-2-yl)-3-(trifluoromethyl)-benzenesulfonamide] | 755
19 | 22 | CC1CCC2(CNc3ccc(S(=O)(=O)Nc4ncc(F)s4)cc3Cl)CCCN12 (single isomer, unassigned) [Ex11-12-A, 3-chloro-N-(5-fluorothiazol-2-yl)-4-((((3S,7aS or 3R,7aR)-3-methylhexahydro-1H-pyrrolizin-7a-yl)methyl)amino)benzene-sulfonamide] | 1335
20 | 30 | CC1CCC2(CNc3ccc(S(=O)(=O)Nc4ncc(F)s4)cc3Cl)CCCN12 (single isomer, unassigned) [Ex11-12-B, 3-chloro-N-(5-fluorothiazol-2-yl)-4-((((3R,7aR or 3S,7aS)-3-methylhexahydro-1H-pyrrolizin-7a-yl)methyl)-amino)benzene-sulfonamide] | 1017
21 | 126 | O=S(=O)(Nc1nccs1)c1cc(Cl)c(NC[C@@]23CCCN2CC2(CC2)C3)cc1F (single isomer, unassigned) [Ex13-10-A] | 113
22 | 16 | O=S(=O)(Nc1nccs1)c1cc(Cl)c(NC[C@]23CCCN2CC2(CC2)C3)cc1F (single isomer, unassigned) [Ex13-10-B] | 406
23 | 22 | O=S(=O)(Nc1ncc(F)s1)c1ccc(NCC23CCCN2CC2(CC2)C3)c(C(F)(F)F)c1 (single isomer, unassigned) [Ex13-12-A, (S or R)-N-(5-fluorothiazol-2-yl)-4-(((hexahydrospiro-[cyclopropane-1,2′-pyrrolizin]-7a′-yl)methyl)-amino)-3-(trifluoromethyl)-benzenesulfonamide] | 756
24 | 7 | O=S(=O)(Nc1ncc(F)s1)c1ccc(NCC23CCCN2CC2(CC2)C3)c(C(F)(F)F)c1 (single isomer, unassigned) [Ex13-12-B, (R or S)-N-(5-fluorothiazol-2-yl)-4-(((hexahydrospiro-[cyclopropane-1,2′-pyrrolizin]-7a′-yl)methyl)-amino)-3-(trifluoromethyl)-benzenesulfonamide] | 3240
25 | 28 | O=S(=O)(Nc1nccs1)c1cc(Cl)c(NC[C@@]23CCCN2[C@H](CO)CC3)cc1F (single isomer, unassigned) [Ex14-11-A] | 1062
26 | 10 | O=S(=O)(Nc1nccs1)c1cc(Cl)c(NC[C@]23CCCN2[C@@H](CO)CC3)cc1F (single isomer, unassigned) [Ex14-11-B] | 3045
